# Experimental data published in patent publication US20210329894A1, “METHOD FOR PREPARING ALZHEIMER'S DISEASE (AD) ANIMAL MODEL” (Shanxi Medical University, priority 2020, published 2021).
# Legend:
# Assay type in all cases: in vivo
# [1] = test system: ApoE4 transgenic mice (KI); experiment: Morris water maze (place navigation test and space exploration experiment); settings: 4 mmol/L Al(mal)3 i.p. 10 ml/kg
# Procedure: (§1) Example 1 Establishment of aluminum-exposed ApoE4 transgenic mouse model 16 healthy male ApoE4 transgenic mice (KI), 16 ApoE knockout mice (KO) and 16 wild-type mice (C57BL/6J, WT) aged 4 to 5 weeks were selected, with similar activities and weights of 18 g to 20 g. They were randomly divided into control group (NS) and aluminum-exposed group (Al), with 8 animals in each group.
# (§2) An 8 mmol/L aluminum chloride solution and a 24 mmol/L maltol solution were prepared with sterilized triple distilled water, then the two solutions were mixed in a volume ratio of 1:1 to obtain a Al(mal)3 solution with a final concentration of 4 mmol/L, and pH was adjusted to 7.4 with 10% NaOH. The animals in the aluminum-exposed group were intraperitoneally injected with the Al(mal)3 at a volume of 10 ml/kg, with aluminum exposure for 60 days, and interval time of 2 days for every 5 days; and the control group was given the same volume of normal saline (NS).
# This example was different from Example 1 in that a Morris water maze experiment and a place navigation test were added. […]
# [2] = test system: ApoE4 transgenic mice (KI); experiment: new object recognition test; settings: 4 mmol/L Al(mal)3 i.p. 10 ml/kg, 60 days, testing session T2, 1 h after training, compared among all groups
# Procedure: as §1
# (§3) An 8 mmol/L aluminum chloride solution and a 24 mmol/L maltol solution were prepared with sterilized triple distilled water, then the two solutions were mixed in a volume ratio of 1:1 to obtain a Al(mal)3 solution with a final concentration of 4 mmol/L, and pH was adjusted to 7.4 with 10% NaOH. […]
# In this example, a new object recognition test was conducted on the basis of the above examples. […] The time periods for a mouse to explore the two areas were both recorded by a recording instrument, and the recording time was set to 10 min, after which the mouse was taken out and put back in the original cage. […] Testing session (T2): 1 h after the training session ended, one of the cubes was replaced with a cone, the mouse was placed in exactly the same way as the training session, and the time periods for the mouse to explore two different objects were recorded as a new object recognition time (New, N) and a familiar object time (Familiar, F). […]
# [3] = determination of aluminum content in the brain (ICP-MS); settings: each aluminum-exposed group (KI, KO, WT mice), 4 mmol/L Al(mal)3 i.p. 10 ml/kg, 60 days; vs control group
# Procedure: as §1, §3
# This example was different from the above Example in that the determination of aluminum content in the brain was added. 60 mg of mouse brain tissue was weighed and put into a microwave digestion tube, 3 ml of nitric acid (guaranteed reagent) was added, and the tube was put in a microwave digestion system for microwave digestion according to a program; after digestion, the solution was filtered with a 0.22 μm microporous filter, and a resulting filtrate was collected in a 5 ml deionized centrifuge tube and then diluted to […] with nitric acid (guaranteed reagent); and the sample was diluted 25 times with Wahaha water, and aluminum content was detected with ICP-MS.
# [4] = test system: Aβ42; experiment: determination of Aβ42 content in the hippocampus (Elisa kit); settings: KI mice, 4 mmol/L Al(mal)3 i.p. 10 ml/kg, 60 days
# Procedure: as §1, §2
# This example was different from the above examples in that the determination of Aβ42 content was added. The hippocampus tissue of a mouse was stripped, and crushed with an ultrasonic processor; the hippocampal tissue protein was extracted with a tissue protein extraction reagent; and the Aβ42 content in the hippocampus was detected with an Aβ42 protein Elisa kit.
# [5] = test system: tau-5; experiment: expression level of tau-5 in the hippocampus (Western blot); settings: KI mice, 4 mmol/L Al(mal)3 i.p. 10 ml/kg, 60 days; relative expression by Western blot
# Procedure: as §1, §2
# (§4) This example was different from the above examples in that the determination of expression levels of Tau proteins in the brain was added. The tau-5 and pThr181 levels in animals of each group were determined by Western blot. […] The gray value was analyzed with Quantity one software, and the relative expression level of protein was calculated.
# [6] = test system: pThr181; experiment: expression level of pThr181 in the hippocampus (Western blot); settings: KI mice, 4 mmol/L Al(mal)3 i.p. 10 ml/kg, 60 days; relative expression by Western blot
# Procedure: as §1, §2, §4
structure (smiles),measurement,setting,value
"Cc1occc(=O)c1[O][Al]([O]c1c(C)occc1=O)[O]c1c(C)occc1=O [Al, Al(mal)3]",escape latency (time to find the platform),"[1]; 60 days exposure, days 4 and 5 of training, vs control group",significantly longer
same,number of crossing the platform,"[1]; 60 days, space exploration experiment, 60 s, compared among all groups",least number of crossing the platform
same,discrimination index (DI),[2],lowest DI
same,brain aluminum content,[3],significantly higher
same,Aβ42 content in the hippocampus,[4],significantly increased
same,expression level of tau-5 in the hippocampus,[5],significantly increased
same,expression level of pThr181 in the hippocampus,[6],significantly increased
